Test results published in US7241791B2, “Substituted 4-(indazol-3-yl)phenols” (Wyeth, priority 2002, dated 2007).
Values joined by “and” are separate entries in the source; they are usually repeats but may differ in a detail not shown here. Equal entries are not always repeated.

Columns and labels:
human ERα [1] = biological target: T1, human ERα (Homo sapiens, UniProt P03372); assay: Creatine kinase expression (ER/CK) in Ad5-wt-hERα infected HAECT-1 cells; conditions: for ER/CK % E2: efficacy relative to the maximal stimulation observed with E2
T1 sequence (P03372 1-595): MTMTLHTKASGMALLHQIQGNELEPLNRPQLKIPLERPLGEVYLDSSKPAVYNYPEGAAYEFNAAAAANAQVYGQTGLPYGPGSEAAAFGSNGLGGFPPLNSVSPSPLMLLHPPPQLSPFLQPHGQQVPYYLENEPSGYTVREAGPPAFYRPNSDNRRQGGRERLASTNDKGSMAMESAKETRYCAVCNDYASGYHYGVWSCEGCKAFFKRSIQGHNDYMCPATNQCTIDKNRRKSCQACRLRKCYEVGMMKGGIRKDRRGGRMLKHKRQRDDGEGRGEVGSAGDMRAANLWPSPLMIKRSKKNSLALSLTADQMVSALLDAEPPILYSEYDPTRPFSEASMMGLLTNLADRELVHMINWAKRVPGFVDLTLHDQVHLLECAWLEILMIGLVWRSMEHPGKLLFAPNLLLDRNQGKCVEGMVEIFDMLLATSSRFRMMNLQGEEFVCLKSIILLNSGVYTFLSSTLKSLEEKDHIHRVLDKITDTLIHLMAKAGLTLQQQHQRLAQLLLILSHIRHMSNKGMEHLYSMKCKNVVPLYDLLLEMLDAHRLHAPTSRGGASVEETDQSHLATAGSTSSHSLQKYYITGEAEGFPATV

human ERα [2] = biological target: T1, human ERα; assay: NF-κB luciferase reporter (ER/NF-KB-luc) in Ad5-wt-hERα infected HAECT-1 cells; conditions: for IC50: ER/NF-KB-luc IC50, Ad5-wt-ER infected HAECT-1 cells, IL-1β; for Emax: HAECT1, read-out: ER/NF-KB-luc % E2, efficacy relative to the maximal inhibition observed with E2

SMILES | EC50 (human ERα [1]) | ER/CK % E2 (human ERα [1]) | IC50 (human ERα [2]) | Emax (human ERα [2]) | ER/NF-KB-luc % E2 (human ERα [2]; efficacy relative to the maximal inhibition observed with E2)
Cc1cc(O)ccc1-c1nn(C2CCCC2)c2c(-c3ccco3)cccc12 [Example 263, 4-[1-cyclopentyl-7-(2-furyl)-1H-indazol-3-yl)-3-methylphenol] | 165 nM | 17 % E2 | 30 nM | 84% | 
C=CCn1nc(-c2ccc(O)cc2)c2cccc(C)c21 [Example 57, 4-(1-allyl-7-methyl-1H-indazol-3-yl)phenol] | 205 nM | 45 % E2 | 45 nM | 89% | 
Cc1ccccc1-c1cccc2c(-c3ccc(O)cc3)nn(C(C)C)c12 [Example 235, 4-[1-isopropyl-7-(2-methylphenyl)-1H-indazol-3-yl]phenol] | 223 nM | 35 % E2 | 16 nM | 74% | 
CCCCn1nc(-c2ccc(O)cc2)c2ccc(C(F)(F)F)cc21 [Example 198, 4-[1-butyl-6-(trifluoromethyl)-1H-indazol-3-yl]phenol] | 1000 nM | 30 % E2 | 303 nM | 100% | 
CC(C)n1nc(-c2ccc(O)cc2)c2cccc(-c3ccccc3)c21 [Example 236, 4-(1-isopropyl-7-phenyl-1H-indazol-3-yl)phenol] | 112 nM |  |  | 83% | 
CC(C)n1nc(-c2ccc(O)cc2O)c2cccc(F)c21 [Example 87, 4-(7-fluoro-1-isopropyl-1H-indazole-3-yl)benzene-1,3-diol] | 188 nM | 24 % E2 | 347 nM | 77% | 
CC(C)n1nc(-c2ccc(O)cc2)c2cccc(-c3ccc(O)c(O)c3)c21 [Example 231, 4-[3-(4-hydroxyphenyl)-1-isopropyl-1H-indazol-7-yl]benzene-1,2-diol] | 3250 nM | 32 % E2 | 382 nM | 78% | 
Oc1ccc(-c2nn(C3CCCC3)c3c(-c4ccc(O)c(O)c4)cccc23)cc1 [Example 240, 4-[1-cyclopentyl-3-(4-hydroxyphenyl)-1H-indazol-7-yl]benzene-1,2-diol] | 974 nM | 32 % E2 | 158 nM | 54% | 
C=CCn1nc2c(C(F)(F)F)cccc2c1-c1ccc(O)cc1O [Example 75, 4-[2-allyl-7-(trifluoromethyl)-2H-indazol-3-yl]-1,3-benzenediol] | 982 nM | 48 % E2 | 63 nM | 83% | 
OCCn1nc(-c2ccc(O)cc2)c2cccc(F)c21 [Example 188, 4-[7-fluoro-1-(2-hydroxyethyl)-1H-indazol-3-yl]phenol] | 2450 nM | 31 % E2 | 751 nM | 90% | 
Cn1nc(-c2ccc(O)cc2O)c2cccc(Cl)c21 [Example 170, 4-(7-chloro-1-methyl-1H-indazol-3-yl)benzene-1,3-diol] | 827 nM | 28 % E2 | 276 nM | 77% | 
CCC(=O)Oc1ccc(-c2nn(C3CCCC3)c3c(F)cccc23)cc1 [Example 115, 4-(1-cyclopentyl-7-fluoro-1H-indazol-3-yl)phenyl propionate] | 166 nM | 91 % E2 | 27 nM and 246 nM | 82% | 71 % E2
CC(C)n1nc(-c2ccc(O)cc2O)c2cccc(C(F)(F)F)c21 [Example 65, 4-[1-isopropyl-7-(trifluoromethyl)-1H-indazol-3-yl]benzene-1,3-diol] | 218 nM | 42 % E2 | 41 nM | 86% | 
Oc1ccc(-c2nn(C3CCCC3)c3c(-c4ccccc4)cccc23)cc1 [Example 246, 4-(1-cyclopentyl-7-phenyl-1H-indazol-3-yl)phenol] | 136 nM | 28 % E2 | 11 nM | 82% | 
CCCCn1nc(-c2ccc(O)cc2)c2cccc(F)c21 [Example 220, 4-(1-butyl-7-fluoro-1H-indazol-3-yl)phenol] | 2340 nM | 48 % E2 | 112 nM | 84% | 
Oc1ccc(-c2nn(C3CCCC3)c3c(-c4ccco4)cccc23)cc1 [Example 244, 4-[1-cyclopentyl-7-(2-furyl)-1H-indazol-3-yl]phenol] | 208 nM | 33 % E2 | 33 nM | 48% | 
CSc1ccc(-c2cccc3c(-c4ccc(O)cc4C)nn(C4CCCC4)c23)cc1 [Example 257, 4-{1-cyclopentyl-7-[4-(methylthio)phenyl]-1H-indazol-3-yl}-3-methylphenol] | 490 nM | 27 % E2 | 43 nM | 76% | 

SMILES | EC50 (human ERα [1]) | ER/CK % E2 (human ERα [1]) | IC50 (human ERα [2]) | Emax (human ERα [2]) | ER/NF-KB-luc % E2 (human ERα [2]; efficacy relative to the maximal inhibition observed with E2)
CC(C)(C)OC(=O)NCC(=O)NCC(=O)Oc1ccc(-c2nn(C3CCCC3)c3c(F)cccc23)cc1 [Example 116, 4-(1-cyclopentyl-7-fluoro-1H-indazol-3-yl)phenyl N-(tert-butoxycarbonyl)glycylglycinate] | 229 nM | 25 % E2 | 140 nM | 63% | 
Cc1cc(O)ccc1-c1nn(C2CCCC2)c2c(-c3ccccc3)cccc12 [Example 265, 4-(1-cyclopentyl-7-phenyl-1H-indazol-3-yl)-3-methylphenol] | 138 nM | 28 % E2 | 6 nM | 82% | 
Cc1cccc(-n2nc(-c3ccc(O)cc3O)c3ccc(O)cc32)c1 [Example 23, 4-[6-hydroxy-1-(3-methylphenyl)-1H-indazol-3-yl]benzene-1,3-diol] | 72 nM | 55 % E2 | 239 nM | 76% | 
Oc1ccc(-c2c3cccc(Cl)c3nn2C2CCCC2)cc1 [Example 52, 4-(7-chloro-2-cyclopentyl-2H-indazol-3-yl)phenol] | 111 nM | 27 % E2 | 17 nM | 76% | 
C=CCn1nc(-c2ccc(O)cc2)c2cccc(F)c21 [Example 50, 4-(1-allyl-7-fluoro-1H-indazol-3-yl)phenol] | 327 nM | 43 % E2 | 106 nM | 84% | 
C=CCn1nc2c(Cl)cccc2c1-c1ccc(O)cc1C [Example 78, 4-(2-allyl-7-chloro-2H-indazol-3-yl)-3-methylphenol] | 2200 nM | 32 % E2 | 590 nM | 90% | 
CCCn1nc(-c2ccc(O)cc2)c2cccc(F)c21 [Example 53, 4-(7-fluoro-1-propyl-1H-indazol-3-yl)phenol] | 184 nM | 31 % E2 | 58 nM | 84% | 
Cn1nc(-c2ccc(O)cc2)c2cc(C(F)(F)F)ccc21 [Example 171, 4-[1-methyl-5-(trifluoromethyl)-1H-indazol-3-yl]phenol] | 2380 nM | 42 % E2 | 582 nM | 95% | 
Oc1ccc(-c2n[nH]c3ccccc23)cc1 [Example 130, 4-(H-indazol-3-yl)phenol] | 205 nM | 54 % E2 | 62 nM | 97% | 
CCCn1nc2c(Cl)cccc2c1-c1ccc(O)cc1 [Example 44, 4-[7-chloro-2-propyl-2H-indazol-3-yl]phenol] | 309 nM | 48 % E2 | 43 nM | 90% | 
Oc1ccc(-c2nn(Cc3ccccc3)c3ccccc23)c(O)c1 [Example 183, 4-(1-benzyl-1H-indazol-3-yl)benzene-1,3-diol] | 2930 nM | 48 % E2 | 431 nM | 135% | 
CCCn1nc2c(C)cccc2c1-c1ccc(O)cc1 [Example 38, 4-[7-methyl-2-propyl-2H-indazol-3-yl]phenol] | 25 nM | 70 % E2 |  | 89% | 
C=CCn1nc2c(C(F)(F)F)cccc2c1-c1ccc(O)cc1 [Example 59, 4-[2-allyl-7-(trifluoromethyl)-2H-indazol-3-yl]phenol] | 133 nM | 36 % E2 | 5 nM | 90% | 
Cc1cc(O)ccc1-c1nn(C2CCCC2)c2c(-c3ccccc3C)cccc12 [Example 264, 4-[1-cyclopentyl-7-(2-methylphenyl)-1H-indazol-3-yl]-3-methyl-phenol] | 15 nM | 21 % E2 | 15 nM | 74% | 
Cn1nc(-c2ccc(O)cc2)c2cccc(F)c21 [Example 200, 4-(7-fluoro-1-methyl-1H-indazol-3-yl)phenol] | 1480 nM | 58 % E2 | 435 nM | 86% | 
CCCn1nc(-c2ccc(O)cc2C)c2cccc(Cl)c21 [Example 86, 4-(7-chloro-1-propyl-1H-indazole-3-yl)-3-methylphenol] | 413 nM | 27 % E2 | 255 nM | 83% | 
